In one series the test system is Streptococcus pneumoniae. In words: Antibacterial activity against Levofloxacin-nonsusceptible Streptococcus pneumoniae assessed as inhibition of bacterial growth by CLSI-based assay. It is filed as functional.
The subject of series [1] is Staphylococcus aureus. In words: Antibacterial activity against levofloxacin-resistant Staphylococcus aureus assessed as inhibition of bacterial growth by CLSI-based assay. Format: functional.
For series [2], the system named is Staphylococcus aureus. In words: Antibacterial activity against Staphylococcus aureus 456 infected in neutropenic BALB/c mouse model assessed as reduction in lung bacterial load at 1.56 to 400 mg/kg, sc administered every 6 hr and measured after 24 hrs by CLSI-based assay (reference value: 5.6 to 6.3 log10 CFU). Format: functional. To be noted: dose 1.56-400 mg/kg, pooled result: one value given for 6 cell lines, strains, targets or settings.

Another series has as its system Escherichia coli. In words: Antibacterial activity against Levofloxacin-nonsusceptible Escherichia coli assessed as inhibition of bacterial growth by CLSI-based assay. It is filed as functional.
Series [3] relates to Clostridioides difficile. In words: Antibacterial activity against Clostridium difficile clinical isolates assessed as inhibition of bacterial growth incubated for 48 hrs by CLSI-based assay. Format: functional.
A short description of series [4]: Drug absorption in Syrian hamster infected with Clostridioides difficile at 75 mg/kg, po by LC-MS analysis. It is filed as ADME, organism-based, Mesocricetus auratus. To be noted: in vivo, read-out: Drug absorption.
For series [5], the system named is Clostridioides difficile. In words: Antibacterial activity against Clostridium difficile clinical isolates assessed as inhibition of bacterial growth. It is filed as functional.
Series [6] in a line: Binding affinity to recombinant Clostridium difficile 630 DNA polymerase IIIC expressed in Escherichia coli Rosetta DE3pLysS cells assessed as inhibition constant incubated for 20 mins. On the set-up: species or system Clostridioides difficile 630.
Series [7] deals with Staphylococcus aureus. In words: Antibacterial activity against Staphylococcus aureus assessed as inhibition of bacterial growth. Format: functional.
Series [8] has as its system Clostridioides difficile. In words: Antibacterial activity against Clostridium difficile clinical isolates assessed as inhibition of bacterial growth incubated for 44 hrs by CLSI-based broth microdilution assay. It is filed as functional. (In general: In broth dilution the organism is exposed to a series of concentrations in liquid medium.)
A further series concerns Chlamydia trachomatis. As to the kind of experiment: Antibacterial activity against Chlamydia trachomatis assessed as inhibition of bacterial growth. It is filed as functional.
The next series relates to Neisseria gonorrhoeae. In words: Antibacterial activity against Neisseria gonorrhoeae ATCC 49226 assessed as inhibition of bacterial growth by agar dilution method. It is filed as functional.
In the next series the test system is Mycoplasma genitalium. In words: Antibacterial activity against Mycoplasma genitalium assessed as inhibition of bacterial growth. The following applies: Mycoplasmoides genitalium. Format: functional.

≈ marks a conversion by molar mass, not a printed value. A value given as a limit tells only on which side of the number the result lay.

In the case of `O=c1ccc2ncc(=O)n3c2n1C[C@H]3CN1CCC(NCc2cc3c(cn2)OCCC3)CC1` [GEPOTIDACIN], the MIC90 with Streptococcus pneumoniae, with Staphylococcus aureus [1] and in the series on Escherichia coli was 0.5 µg/mL (≈ 1.11 µM) in each case. For the same compound, the Activity in the series with Staphylococcus aureus [2] was found to be 1.4 log10CFU.

Take `O=c1[nH]c(NCc2ccc(Cl)c(Cl)c2)nc2ncn(CCN3CCOCC3)c12` [IBEZAPOLSTAT]: the MIC50 in the series with Clostridioides difficile [3] was 2 µg/mL (≈ 4.72 µM). The Fa in series [4] was determined as 5%. In addition, the MIC in the series on Clostridioides difficile [5] came to 1 µg/mL (≈ 2.36 µM). Besides, the Ki in series [6] was determined as 325 nM.

With `Cc1ncc([N+](=O)[O-])n1CCO` [METRONIDAZOLE], in the series with Clostridioides difficile [3], the MIC50 is 1 µg/mL (≈ 5.84 µM). The MIC in the series on Clostridioides difficile [5] was 0.15 µg/mL (≈ 0.876 µM).

For the compound `Cn1cc(NC(=O)c2cc(NC(=O)c3ccc(/C=C/c4cnc5ccccc5c4)cc3)cn2C)cc1C(=O)NCCN1CCOCC1` [MGB-BP-3], the MIC80 with Staphylococcus aureus [7] was below 0.2 µM.

As for `CN[C@H](CC(C)C)C(=O)N[C@H]1C(=O)N[C@@H](CC(N)=O)C(=O)N[C@H]2C(=O)N[C@H]3C(=O)N[C@H](C(=O)N[C@H](C(=O)O)c4cc(O)cc(O)c4-c4cc3ccc4O)[C@H](O)c3ccc(c(Cl)c3)Oc3cc2cc(c3O[C@@H]2O[C@H](CO)[C@@H](O)[C@H](O)[C@H]2O[C@H]2C[C@](C)(N)[C@H](O)[C@H](C)O2)Oc2ccc(cc2Cl)[C@H]1O` [VANCOMYCIN], the MIC50 in the series on Clostridioides difficile [3] came to 1 µg/mL (≈ 0.69 µM). In addition, the MIC with Clostridioides difficile [5] and in the series on Clostridioides difficile [8] was 0.25 µg/mL (≈ 0.173 µM) in each case.

With `C[C@@H]1CN2c3c(cc4c(N5C(=O)OC[C@@H]5C)noc4c3F)CC3(C(=O)NC(=O)NC3=O)[C@H]2[C@H](C)O1` [ZOLIFLODACIN], the minimal inhibitory concentration (MIC) was 0.5 µg/mL (≈ 1.03 µM) in the series with Chlamydia trachomatis and below 1 µg/mL with Mycoplasma genitalium. Moreover, the MIC90 with Neisseria gonorrhoeae worked out at 0.125 µg/mL (≈ 0.256 µM).

By MIC90 is commonly meant the lowest concentration that inhibits either 90% of growth or 90% of the strains tested, depending on the study. For orientation: MIC50 means an inhibitory concentration at the 50% level, which refers to growth in some studies and to a panel of isolates in others. Broadly, the MIC is the smallest concentration in the dilution series that meets the test's criterion for growth inhibition. A word on the Ki: it is the dissociation constant of the complex between target and ligand, obtained from inhibition or displacement. In general, MIC80 refers to an inhibitory concentration at the 80% level, which refers to growth in some studies and to a panel of isolates in others.

The values are drawn from ChEMBL document CHEMBL5370525, “Antibiotics with novel mode of action as new weapons to fight antimicrobial resistance” (Eur J Med Chem, 2023).
